Values joined by “and” are separate entries in the source; they are usually repeats but may differ in a detail not shown here. Identical values can stand only once. Like-named read-outs stand apart in the source and are kept apart here.
How the values were obtained:
Details in all cases: COS-7 membranes
α1a-AR = biological target: T1, α1a-AR (Homo sapiens, UniProt P35348); test: α1-Adrenergic Receptor Binding Assay, 125I-HEAT radio-ligand binding, transfected COS-7 cell membranes, α1a subtype
T1 construct: expressed in transfected cells; host or cells: COS-7 cells (African Green monkey kidney), membranes
T1 sequence (P35348 1-466): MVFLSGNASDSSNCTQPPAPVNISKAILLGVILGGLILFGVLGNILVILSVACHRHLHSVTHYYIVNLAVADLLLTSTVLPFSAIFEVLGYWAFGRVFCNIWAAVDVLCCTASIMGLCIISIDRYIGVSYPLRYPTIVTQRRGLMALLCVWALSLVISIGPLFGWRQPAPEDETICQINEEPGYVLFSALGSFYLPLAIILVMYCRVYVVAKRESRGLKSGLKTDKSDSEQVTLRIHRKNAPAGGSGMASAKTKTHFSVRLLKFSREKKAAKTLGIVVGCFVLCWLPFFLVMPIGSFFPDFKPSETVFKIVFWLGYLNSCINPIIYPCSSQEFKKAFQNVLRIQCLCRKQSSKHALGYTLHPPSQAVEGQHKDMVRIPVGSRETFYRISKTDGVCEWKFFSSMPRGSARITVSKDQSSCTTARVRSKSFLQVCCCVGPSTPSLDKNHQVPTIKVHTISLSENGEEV
Description: (§1) Membranes were prepared from COS-7 cells (African Green monkey kidney SV40-transformed cells) that had been transfected with one of the three α1-AR subtypes by the following method: COS cells from ten 100 mm tissue culture plates were scraped into a 5 ml volume of TE (a mixture of 50 mM tris(hydroxymethyl)aminomethane hydrochloride (Tris-HCl) and 5 mM ethylenediaminetetraacetic acid (EDTA) at pH 7.4). The cell suspension was disrupted with a Brinkman Polytron (at a setting of 8) for 10 sec. The disrupted cells were centrifuged at 1000×g for 10 min at 4° C. Supernatants were centrifuged at 34,500×g for 20 min at 4° C. The membrane pellets were suspended in a 2 ml volume of TNE (a mixture of 50 mM Tris-HCl, 5 mM EDTA and 150 mM NaCl at pH7.4). An aliquot of the membrane suspension was stored at −70° C. until use. The protein concentration was determined using a BioRad “DC” protein assay kit following membrane solubilization with Triton X-100.
(§2) Triplicate determinations of radio-ligand binding in the presence of increasing concentrations of testing compound were made. The reagents were added to 96-well polypropylene plate wells. Each assay well contained 140 μL TNE, 25 μL 125′-2-(β-4-hydroxyphenyl)ethylaminomethyltetralone (^125I-HEAT) (specific activity 2200 Ci/mmol, Dupont-New England Nuclear, […] final), 10 μL testing compound dissolved in dimethyl sulfoxide (DMSO) ([…] to 10 μM in half-log increments, final), and 25 μL appropriate α1-AR membrane subtype suspension in TNE (0.5 ng/μL for the α1a and α1b subtypes and 13 ng/μL for the α1d subtype). The plate was incubated at rt for 1 hr. The contents of the wells were filtered through a glass filter (type C) (GF/C) membrane Unifilter plate (Packard Instruments) using the Packard Filtermate cell harvester. The filter plates were dried in a vacuum oven for 30 min at 40° C. 25 μL Microscint 20 liquid scintillation fluid (Packard Instuments) was added to each well. The radioactive content was analyzed in the TopCount microplate scintillation counter (Packard Instruments).
(§3) The Ki values (in nM) shown in Table 1 were determined using GraphPad Prism software.

α1b-AR = biological target: T2, α1b-AR (Homo sapiens, UniProt P35368); test: α1-Adrenergic Receptor Binding Assay, 125I-HEAT radio-ligand binding, transfected COS-7 cell membranes, α1b subtype
T2 construct: expressed in transfected cells; host or cells: COS-7 cells (African Green monkey kidney), membranes
T2 sequence (P35368 1-520): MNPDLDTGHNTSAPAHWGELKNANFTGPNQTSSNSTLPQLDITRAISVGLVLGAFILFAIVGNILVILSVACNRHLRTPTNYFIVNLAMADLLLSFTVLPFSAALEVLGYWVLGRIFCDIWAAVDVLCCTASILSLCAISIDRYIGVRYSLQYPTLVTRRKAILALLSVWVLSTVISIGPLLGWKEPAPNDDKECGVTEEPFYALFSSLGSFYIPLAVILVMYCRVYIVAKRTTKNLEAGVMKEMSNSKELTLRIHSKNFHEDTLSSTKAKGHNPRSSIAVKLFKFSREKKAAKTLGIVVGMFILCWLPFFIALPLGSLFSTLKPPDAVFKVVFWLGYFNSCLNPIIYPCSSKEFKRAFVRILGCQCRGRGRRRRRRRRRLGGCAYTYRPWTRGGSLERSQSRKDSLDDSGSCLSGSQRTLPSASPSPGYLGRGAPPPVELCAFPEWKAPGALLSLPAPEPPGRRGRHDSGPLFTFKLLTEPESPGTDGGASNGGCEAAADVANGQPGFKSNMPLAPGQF
Description: as §1, §2, §3

α1d-AR = biological target: T3, α1d-AR (Homo sapiens, UniProt P25100); test: α1-Adrenergic Receptor Binding Assay, 125I-HEAT radio-ligand binding, transfected COS-7 cell membranes, α1d subtype
T3 construct: expressed in transfected cells; host or cells: COS-7 cells (African Green monkey kidney), membranes
T3 sequence (P25100 1-572): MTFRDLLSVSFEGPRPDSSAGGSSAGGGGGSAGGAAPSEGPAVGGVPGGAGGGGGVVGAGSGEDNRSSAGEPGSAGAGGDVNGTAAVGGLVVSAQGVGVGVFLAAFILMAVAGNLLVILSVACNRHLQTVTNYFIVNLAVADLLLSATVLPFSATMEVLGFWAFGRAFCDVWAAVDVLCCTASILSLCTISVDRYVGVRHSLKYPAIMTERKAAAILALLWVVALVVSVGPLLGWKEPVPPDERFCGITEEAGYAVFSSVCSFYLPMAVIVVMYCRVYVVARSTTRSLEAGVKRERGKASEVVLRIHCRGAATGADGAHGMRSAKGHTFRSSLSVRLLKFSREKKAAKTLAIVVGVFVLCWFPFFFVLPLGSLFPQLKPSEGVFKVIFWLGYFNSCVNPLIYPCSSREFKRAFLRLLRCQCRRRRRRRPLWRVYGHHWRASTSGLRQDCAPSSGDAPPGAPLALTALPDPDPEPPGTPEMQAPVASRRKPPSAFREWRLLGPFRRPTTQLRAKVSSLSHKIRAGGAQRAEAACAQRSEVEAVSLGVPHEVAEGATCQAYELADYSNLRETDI
Description: as §1, §2, §3

[1] = average value, read-out: Alpha 1 Ki α1a (1) Average Value
[2] = individual values, read-out: Alpha 1 Ki α1a (2) Individual Values
[3] = average value, read-out: Alpha 1 Ki α1b (1) Average Value
[4] = individual values, read-out: Alpha 1 Ki α1b (2) Individual Values
[5] = average value, read-out: Alpha 1 Ki α1d (1) Average Value
[6] = individual values, read-out: Alpha 1 Ki α1d (2) Individual Values

| SMILES | Ki (α1a-AR; [1]) [nM] | Ki (α1a-AR; [2]) | Ki (α1b-AR; [3]) [nM] | Ki (α1b-AR; [4]) | Ki (α1d-AR; [5]) [nM] | Ki (α1d-AR; [6]) |
| --- | --- | --- | --- | --- | --- | --- |
| CC(C)Oc1ccccc1N1CCN(CC2CC(C(=O)N3CCOCC3)=NO2)CC1 (single isomer, unassigned) [Compound 45, {(5R*)-5-[4-(2-Isopropoxy-phenyl)-piperazin-1-ylmethyl]-4,5-dihydro-isoxazol-3-yl}-morpholin-4-yl-methanone] | 73.1 | 73.1 nM | 1060 | 1060 nM | 297 | 297 nM |
| CC(C)Oc1ccccc1N1CCN(CC2CC(C(=O)N3CCc4cc(Br)ccc43)=NO2)CC1 (centres unmarked) [Compound 13, (5-bromo-2,3-dihydro-indol-1-yl)-{5-[4-(2-isopropoxy-phenyl)-piperazin-1-ylmethyl]-4,5-dihydro-isoxazol-3-yl}-methanone] | 2.48 | 1.31 nM and 2.4 nM and 3.7 nM and 2.5 nM | 191 | 402 nM and 147 nM and 134 nM and 82.8 nM | 6.08 | – |
| CC(C)Oc1ccccc1N1CCN(CC2CC(C(=O)N3CCc4ccccc43)=NO2)CC1 (single isomer, unassigned) [Compound 36, (2,3-dihydro-indol-1-yl)-{(5S*)-5-[4-(2-isopropoxy-phenyl)-piperazin-1-ylmethyl]-4,5-dihydro-isoxazol-3-yl}-methanone] | 38.2 | – | 191 | – | 90.2 | – |
| CC(C)Oc1ccccc1N1CCN(CC2CC(C(=O)N3CCC(C(=O)c4ccccc4)CC3)=NO2)CC1 (centres unmarked) [Compound 21, (4-benzoyl-piperidin-1-yl)-{5-[4-(2-isopropoxy-phenyl)-piperazin-1-ylmethyl]-4,5-dihydro-isoxazol-3-yl}-methanone] | 5.25 | 3.2 nM and 7.3 nM | 224 | 288 nM and 160 nM | 7.65 | 5.5 nM and 9.8 nM |
| COc1ccccc1C1CCN(C(=O)C2=NOC(CN3CCN(c4ccccc4OC(C)C)CC3)C2)CC1 (centres unmarked) [Compound 33, {5-[4-(2-isopropoxy-phenyl)-piperazin-1-ylmethyl]-4,5-dihydro-isoxazol-3-yl}-[4-(2-methoxy-phenyl)-piperidin-1-yl]-methanone] | 19 | 19 nM | 254 | 254 nM | 20 | 20 nM |
| CC(C)Oc1ccccc1N1CCN(CC2CC(CN3CCc4ccc(NCc5c(F)cccc5F)cc43)=NO2)CC1 (centres unmarked) [Compound 7, (2,6-difluoro-benzyl)-(1-{5-[4-(2-isopropoxy-phenyl)-piperazin-1-ylmethyl]-4,5-dihydro-isoxazol-3-ylmethyl}-2,3-dihydro-1H-indol-6-yl)-amine] | 6.4 | 6.4 nM | 172 | 172 nM | 9.4 | 9.4 nM |
| CC(C)Oc1ccccc1N1CCN(CC2CC(C(=O)N3CCC(C(=O)c4ccc(F)cc4)CC3)=NO2)CC1 (single isomer, unassigned) [Compound 41, [4-(4-fluoro-benzoyl)-piperidin-1-yl]-{(5R*)-5-[4-(2-isopropoxy-phenyl)-piperazin-1-ylmethyl]-4,5-dihydro-isoxazol-3-yl}-methanone] | 240 | 240 nM | 1690 | 1690 nM | 58.1 | 58.1 nM |
| CC(C)Oc1ccccc1N1CCN(CC2CC(C(=O)N3CC(C)(C)c4cc(Br)ccc43)=NO2)CC1 (single isomer, unassigned) [Compound 43, (5-bromo-3,3-dimethyl-2,3-dihydro-indol-1-yl)-{(5S*)-5-[4-(2-isopropoxy-phenyl)-piperazin-1-ylmethyl]-4,5-dihydro-isoxazol-3-yl}-methanone] | 317 | 317 nM | 1080 | 1080 nM | 104 | 104 nM |
| CC(C)Oc1ccccc1N1CCN(CC2CC(C(=O)N3CCC(Oc4ccc(Cl)cc4)CC3)=NO2)CC1 (centres unmarked) [Compound 34, [4-(4-chloro-phenoxy)-piperidin-1-yl]-{5-[4-(2-isopropoxy-phenyl)-piperazin-1-ylmethyl]-4,5-dihydro-isoxazol-3-yl}-methanone] | 40 | 40 nM | 255 | 255 nM | 27 | 27 nM |
| Cc1ccc2c(c1)CCN2C(=O)C1=NOC(CN2CCN(c3ccccc3OC(C)C)CC2)C1 (centres unmarked) [Compound 25, {5-[4-(2-isopropoxy-phenyl)-piperazin-1-ylmethyl]-4,5-dihydro-isoxazol-3-yl}-(5-methyl-2,3-dihydro-indol-1-yl)-methanone] | 3.5 | 3.5 nM | 71 | 71 nM | 0.12 | 0.12 nM |
| CC(C)Oc1ccccc1N1CCN(CC2CC(C(=O)N3CCCCC3)=NO2)CC1 (centres unmarked) [Compound 12, {5-[4-(2-isopropoxy-phenyl)-piperazin-1-ylmethyl]-4,5-dihydro-isoxazol-3-yl}-piperidin-1-yl-methanone] | 1.81 | 1.02 nM and 1.7 nM and 2.7 nM | 249 | 334 nM and 174 nM and 239 nM | 17.8 | 29 nM and 18 nM and 6.26 nM |
| CC(C)Oc1ccccc1N1CCN(CC2CC(C(=O)N3CCCc4ccccc43)=NO2)CC1 (centres unmarked) [Compound 26, (3,4-dihydro-2H-quinolin-1-yl)-{5-[4-(2-isopropoxy-phenyl)-piperazin-1-ylmethyl]-4,5-dihydro-isoxazol-3-yl}-methanone] | 6.7 | 6.7 nM | 258 | 258 nM | 11 | 11 nM |
| CC(C)Oc1ccccc1N1CCN(CC2CC(C(=O)N3CCc4ccc(N)cc43)=NO2)CC1 (centres unmarked) [Compound 14, (6-amino-2,3-dihydro-indol-1-yl)-{5-[4-(2-isopropoxy-phenyl)-piperazin-1-ylmethyl]-4,5-dihydro-isoxazol-3-yl}-methanone] | 2 | 2 nM | 141 | 141 nM | 2.8 | 2.8 nM |
